Laboratory results: ChEMBL document CHEMBL1201862, “PubChem BioAssay data set” (2004)
The source made the active and inactive calls.

Assays:
[1] = intracellular Trypanosoma cruzi inhibitors in host cells – cell-based, plate reader, cherry-pick samples, set 3, dose response (AID 651818); assay type: functional;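 further: compounds incubated with infected cells for about four days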
[2] = tested on: INS1; assay: INS-1E survival protection against cytokine death – cell-based, luminescence, retest, dose response (AID 449756); assay type: functional; conditions: Rattus norvegicus;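 further: cell death triggered by IL-1 beta plus TNF-alpha plus IFN-gamma mixture; protective hits raise ATP signal compared with cytokine alone wells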
[3] = tested on: H9c2; assay: cells; assay type: functional, cell-based; conditions: Rattus norvegicus, H9c2, Myocardium;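 further: confirmatory concentration-response retest of ultra-high-throughput screening hits for modulation of myocardial damage; cell death induced by hydrogen peroxide oxidative stress; compound pretreatment for 60 min then peroxide exposure for 2 h; potency is for protecting the cells against peroxide damage rather than for killing them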
[4] = tested on: SN12K1; assay: cells; assay type: functional; conditions: Homo sapiens
[5] = target: T1, Sentrin-specific protease 7 (Homo sapiens, UniProt Q9BQF6); assay: inhibition of human SENP7 cleavage activity – biochemical, luminescence, SAR follow-up (AID 504497); assay type: functional
T1 sequence (Q9BQF6 whole entry): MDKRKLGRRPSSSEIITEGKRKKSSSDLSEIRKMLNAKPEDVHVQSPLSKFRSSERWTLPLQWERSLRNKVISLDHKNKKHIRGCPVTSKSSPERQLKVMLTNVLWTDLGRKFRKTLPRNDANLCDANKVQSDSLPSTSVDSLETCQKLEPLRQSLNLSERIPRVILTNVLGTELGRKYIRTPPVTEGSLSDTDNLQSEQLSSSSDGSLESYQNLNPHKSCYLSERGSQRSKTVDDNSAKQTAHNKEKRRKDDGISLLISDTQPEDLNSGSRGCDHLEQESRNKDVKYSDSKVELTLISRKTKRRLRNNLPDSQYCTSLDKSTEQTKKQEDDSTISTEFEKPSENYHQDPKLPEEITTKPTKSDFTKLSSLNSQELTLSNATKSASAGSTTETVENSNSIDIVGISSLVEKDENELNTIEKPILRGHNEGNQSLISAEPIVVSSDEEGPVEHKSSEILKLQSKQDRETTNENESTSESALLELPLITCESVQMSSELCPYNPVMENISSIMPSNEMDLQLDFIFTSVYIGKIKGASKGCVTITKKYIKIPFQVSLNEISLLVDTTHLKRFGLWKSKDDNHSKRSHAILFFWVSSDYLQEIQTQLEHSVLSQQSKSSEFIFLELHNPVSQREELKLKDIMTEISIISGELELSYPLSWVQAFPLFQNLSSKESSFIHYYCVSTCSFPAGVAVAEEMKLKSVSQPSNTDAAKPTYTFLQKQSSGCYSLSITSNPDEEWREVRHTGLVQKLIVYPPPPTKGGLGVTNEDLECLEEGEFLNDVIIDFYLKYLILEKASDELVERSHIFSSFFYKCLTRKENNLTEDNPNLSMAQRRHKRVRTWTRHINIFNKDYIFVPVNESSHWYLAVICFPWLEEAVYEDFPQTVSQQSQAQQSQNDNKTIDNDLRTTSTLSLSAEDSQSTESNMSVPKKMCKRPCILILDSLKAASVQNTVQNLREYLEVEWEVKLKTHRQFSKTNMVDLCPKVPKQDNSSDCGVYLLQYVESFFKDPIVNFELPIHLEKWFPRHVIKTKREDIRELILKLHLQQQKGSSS

[6] = target: T2, Caspase-3 (Homo sapiens, UniProt P42574); assay: SAR Analysis of small molecule inhibitors of Sentrin-specific proteases (SENPs) using a Caspase-3 Selectivity assay. [Related pubchem assays (depositor defined):AID2540, AID2599, AID434973, AID489001]; assay type: functional
T2 sequence (P42574 whole entry): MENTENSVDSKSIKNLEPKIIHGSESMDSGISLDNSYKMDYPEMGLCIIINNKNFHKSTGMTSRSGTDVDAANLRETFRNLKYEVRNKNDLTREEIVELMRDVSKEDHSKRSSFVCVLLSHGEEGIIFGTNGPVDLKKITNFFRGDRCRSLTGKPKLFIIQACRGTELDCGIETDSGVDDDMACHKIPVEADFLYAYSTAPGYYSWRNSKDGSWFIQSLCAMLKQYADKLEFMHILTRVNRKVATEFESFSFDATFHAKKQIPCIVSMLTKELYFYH

[7] = target: T3, Sentrin-specific protease 8 (Homo sapiens, UniProt Q96LD8); assay: inhibition of human SENP8 cleavage activity – biochemical, luminescence, SAR follow-up (AID 504501); assay type: functional
T3 sequence (Q96LD8 whole entry): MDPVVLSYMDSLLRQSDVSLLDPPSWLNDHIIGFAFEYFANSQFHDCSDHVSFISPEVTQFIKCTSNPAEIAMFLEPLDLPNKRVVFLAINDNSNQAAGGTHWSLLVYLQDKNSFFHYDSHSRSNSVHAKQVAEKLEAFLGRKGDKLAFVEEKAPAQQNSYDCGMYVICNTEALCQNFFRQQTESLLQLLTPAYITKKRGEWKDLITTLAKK

[8] = target: T4, Sentrin-specific protease 6 (Homo sapiens, UniProt Q9GZR1); assay: SAR Analysis of small molecule inhibitors of Sentrin-specific protease 6 (SENP6) using a Luminescent assay. [Related pubchem assays (depositor defined):AID2582, AID2599]; assay type: functional
T4 sequence (Q9GZR1 whole entry): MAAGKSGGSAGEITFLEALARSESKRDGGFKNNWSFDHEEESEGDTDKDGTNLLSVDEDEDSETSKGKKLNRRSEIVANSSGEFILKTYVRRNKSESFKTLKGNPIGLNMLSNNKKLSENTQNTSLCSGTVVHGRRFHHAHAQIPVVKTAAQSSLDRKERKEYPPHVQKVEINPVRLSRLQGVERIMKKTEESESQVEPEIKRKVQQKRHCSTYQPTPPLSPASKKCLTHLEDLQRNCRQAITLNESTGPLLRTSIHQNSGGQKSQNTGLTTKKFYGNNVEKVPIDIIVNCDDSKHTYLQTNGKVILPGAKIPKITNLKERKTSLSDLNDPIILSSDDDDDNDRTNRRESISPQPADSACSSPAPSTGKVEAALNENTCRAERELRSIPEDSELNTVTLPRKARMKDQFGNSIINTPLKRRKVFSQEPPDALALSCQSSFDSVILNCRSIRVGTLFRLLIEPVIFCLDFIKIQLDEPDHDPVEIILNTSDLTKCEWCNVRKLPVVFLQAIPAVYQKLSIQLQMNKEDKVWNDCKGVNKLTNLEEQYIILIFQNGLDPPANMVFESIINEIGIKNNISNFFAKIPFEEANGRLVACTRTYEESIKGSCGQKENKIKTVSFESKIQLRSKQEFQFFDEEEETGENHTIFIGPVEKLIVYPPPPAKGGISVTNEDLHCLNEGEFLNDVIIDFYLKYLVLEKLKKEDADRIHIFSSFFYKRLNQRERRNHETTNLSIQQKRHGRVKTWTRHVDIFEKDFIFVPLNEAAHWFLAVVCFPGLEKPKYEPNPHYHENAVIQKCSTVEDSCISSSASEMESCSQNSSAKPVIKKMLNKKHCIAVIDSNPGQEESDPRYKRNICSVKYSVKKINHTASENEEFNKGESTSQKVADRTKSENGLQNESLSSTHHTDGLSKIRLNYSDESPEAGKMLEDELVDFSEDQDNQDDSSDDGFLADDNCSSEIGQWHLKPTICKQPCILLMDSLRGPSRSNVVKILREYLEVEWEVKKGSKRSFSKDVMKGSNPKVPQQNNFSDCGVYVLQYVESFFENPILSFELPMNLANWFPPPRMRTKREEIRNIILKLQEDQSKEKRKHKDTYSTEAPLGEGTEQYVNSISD

With `C[C@@H]1CN([C@H](C)CO)C(=O)Cc2cc(NC(=O)Nc3cccc4ccccc34)ccc2O[C@@H]1CN(C)Cc1ccc(C(F)(F)F)cc1` the AC50 [1] was 4.02 µM (active).

In the case of `Cc1ccc(C(=O)Nc2nc(-c3ccccn3)cs2)s1`, the AC50 [2] was 1.67 µM (active) and the IC50 [3] was > 79 µM (inactive).

For `O=C(OC(=O)n1ccc2ccccc21)n1ccc2ccccc21`, the GI50 [4] was > 100 µM (inactive).

For `Cc1ccc(C(C)C)c(OCC(=O)NNC(=O)Cn2[nH]c(=O)c3ccccc3c2=O)c1`, the IC50 [3] was > 79 µM (inactive).

For `C[C@H](CO)N1C[C@H](C)[C@@H](CN(C)S(=O)(=O)c2ccc(F)cc2)Oc2ccc(NC(=O)Nc3ccc4c(c3)OCO4)cc2C1=O`, the IC50 [3] was > 79 µM (inactive).

For `CCOc1ccc2nc(NC(=O)Cn3c(=O)oc4ccc(C(=O)N5CCCC5)cc43)sc2c1`, the IC50 [5] was > 99 µM (inactive), the IC50 [6] was > 99 µM (inactive) and the IC50 [7] was > 99 µM (inactive). For the same compound, the IC50 [8] was > 99 µM (inactive).

With `C[C@@H]1CN([C@H](C)CO)C(=O)Cc2cc(NS(=O)(=O)c3ccc(Cl)cc3)ccc2O[C@H]1CN(C)CC1CCCCC1` the AC50 [1] was 2.67 µM (active).

With `CCCc1ccccc1-c1nc(/C=C/c2ccccc2)no1` the IC50 [5] was > 99 µM (inactive), the IC50 [6] was > 99 µM (inactive) and the IC50 [7] was > 99 µM (inactive). The IC50 [8] was > 99 µM (inactive).

For `CCOC(=O)c1c(C)[nH]c(C(=O)COc2ccc3ccc(=O)oc3c2)c1C`, the IC50 [3] was 23.7 µM (active).

With `CCOc1cc(/C=C(\C#N)C(=O)Nc2ccc(S(N)(=O)=O)cc2)ccc1OCCN1CCOCC1` the IC50 [3] was > 79 µM (inactive).

For `CN(C)CCN(C(=O)c1ccc(Cl)s1)c1nc2ccc(F)cc2s1`, the IC50 [5] was > 99 µM (inactive), the IC50 [6] was > 99 µM (inactive) and the IC50 [7] was > 99 µM (inactive). For the same compound, the IC50 [8] was > 99 µM (inactive).

For `C[C@@H]1CN([C@H](C)CO)C(=O)Cc2cc(NC(=O)Cc3cn(C)c4ccccc34)ccc2O[C@H]1CN(C)CC1CCCCC1`, the AC50 [1] was 8.13 µM (active).

For `C[C@@H]1CN([C@@H](C)CO)C(=O)c2cc(NC(=O)Cc3cn(C)c4ccccc34)ccc2O[C@H]1CN(C)Cc1ccc(C(F)(F)F)cc1`, the AC50 [1] was 4.31 µM (active).

For `CC(C)(C)OC(=O)C[C@@H]1C/C=C\C[C@@H](CC(=O)N[C@H](CO)Cc2ccccc2)C(=O)NC[C@@H](c2ccccc2)OC1=O`, the IC50 [3] was > 79 µM (inactive).

In the case of `Cc1noc(C)c1S(=O)(=O)Nc1ccc2c(c1)C(=O)N([C@@H](C)CO)C[C@H](C)[C@H](CN(C)Cc1ccc(C(=O)Nc3ccccc3N)cc1)O2`, the AC50 [1] was 2.08 µM (active).

In the case of `Cc1[nH]c(=O)sc1S(=O)(=O)N1CCN(C(=O)c2sc3cc(F)ccc3c2Cl)CC1`, the IC50 [5] was > 99 µM (inactive), the IC50 [6] was > 99 µM (inactive) and the IC50 [7] was > 99 µM (inactive). The IC50 [8] was > 99 µM (inactive).

With `C[C@@H]1CN([C@H](C)CO)C(=O)Cc2cc(NC(=O)Nc3ccc(F)cc3)ccc2O[C@H]1CN(C)CC1CCCCC1` the AC50 [1] was 6.17 µM (active).

For `CCCCc1ccc2nc(NC(=O)c3oc4ccccc4c3C)sc2c1`, the IC50 [5] was > 99 µM (inactive), the IC50 [6] was > 99 µM (inactive) and the IC50 [7] was > 99 µM (inactive). The IC50 [8] was > 99 µM (inactive).
